# From EP1889615A2, “Formulations for oral administration with a health promoting effect on the osteoarticular and muscleskeleton apparatus” (ROTTAPHARM S.P.A., priority 2006, dated 2008)
# Legend:
# TNFα = test: Human blood: LPS stimulated production (expression) of TNFα; assay type: cell-based
# Procedure: 200 µl samples have been stimulated with 1 µg/ml of LPS for 24 hours at 37°C [Hartel et al. 2004], in the presence of the test products. The cytokines released into the plasma have been analysed using a multiple system for cytokines (Bio-Plex, Bio-Rad Laboratories, Milan, Italy) allowing the simultaneous determination of IL-1, TNFα and IL-10.
# [1] = system: tibial joint cartilage explants; test: Rabbit cartilage explants: protection against IL-1β-induced cartilage degradation (GAG release); details: for %Diff. vs baseline: GAG release, protection positive
# Procedure: The explants (2 x 2 mm) have been transferred to plates with wells and equilibrated for 48 hours at 37°C with high glucose DMEM plus 10% FCS and 50 µg/ml gentamycin. Explants have then been stimulated for 48 hours with 1 ng/ml IL-1β in aphenolic DMEM, 1 g/l glucose, 50 µg/ml gentamycin and 1% BSA. IL-1β elicits strong activation of the enzymes which depolymerise the proteoglycan aggregates of the cartilage matrix, resulting in its degradation, with the release of the breakdown products, mainly represented by the various glycosaminoglycans (GAG) making up the proteoglycan aggregates, into the culture liquid. […] In order to assess the effects of the test products on IL-1β-induced cartilage degradation, they have been added to the cartilage explants 20 minutes prior to stimulation with IL-1β. Cartilage degradation has been assessed by expressing the GAG released into the culture liquid as a percentage of the total GAG measured following complete digestion of the cartilage explants using papain.
# TXB2 = test: Human blood: coagulation-induced thromboxane (TXB2) production, marker of platelet COX-1 activity; assay type: cell-based; details: for %Diff. vs control: TXB2
# Procedure: The test products have been added to samples of human blood, collected from healthy volunteers, and then said samples allowed to coagulate by leaving to stand for 1 hour at 37°C. The thromboxane (TXB2) in the serum, a marker of platelet COX-1 activity (Panara et al. 1999], has been determined using a specific RIA method.
# [2] = system: zymosan-induced rat paw hyperalgesia; test: Rat: analgesic activity (Randall and Selitto) on zymosan-induced paw hyperalgesia; assay type: in vivo; details: for % Diff. vs. control: analgesia; for % Diff. vs. control / Diff. vs. control / Analgesia: oral; for Diff. vs. control: difference of the Analgesia Δgx24h values; for Analgesia: area under analgesimetric curve 0-24 h
# Procedure: The analgesic activities of the test products have been evaluated using the technique of Randall and Selitto [1957] on hyperalgesia induced in rat paw by a subplantar injection of 4 mg di zymosan in 0.1 ml of isotonic saline. The mechanical nociceptive threshold has been determined using an analgesimeter (Ugo Basile, Varese, Italy) at 0, 1, 2, 4, 6 and 24 hours following the injection of zymosan. The analgesimeter measures the weight (in grams) applied to the paw which causes the reflex retraction of the paw itself. The nociceptive threshold has been expressed as the difference (in grams) in nociceptive threshold at time 0. The test products have been administered orally 30 minutes prior to the injection of zymosan. Celecoxib, a known COX-2 inhibitor, widely used clinically as an analgesic-anti-inflammatory, and administered orally at a dose of 10 mg/kg, has been used as a reference standard. In order to express the treatment effects numerically, the areas under the curves of the analgesimetric weight increase on the inflamed paw have been measured from 0 to 24 hours, thus giving the measurement in g x 24 hours of the area under the analgesimetric curve.
# [3] = system: zymosan-induced rat paw oedema; test: Rat: anti-inflammatory activity on zymosan-induced paw oedema; assay type: in vivo; details: for % Diff. vs. control / Diff. vs. control: oedema; for % Diff. vs. control / Diff. vs. control / Oedema: oral; for Oedema: area under curve 0-24 h
# Procedure: The anti-inflammatory activities of the test products have been assessed according to Di Rosa et al. [1971] on rat paw oedema induced by a subplantar injection of 4 mg di zymosan in 0.1 ml of isotonic saline. Paw volume has been measured pletismographically at 0, 1, 2, 4, 6 and 24 hours following the injection of zymosan, and expressed in ml of difference, with respect to the baseline volume. The test products, suspended in 5 ml/kg of 5% methylcellulose, have been administered with a gastric probe 30 minutes prior to the injection of zymosan. Celecoxib, a known COX-2 inhibitor, widely used clinically, and administered orally at a dose of 10 mg/kg, has been used as a reference standard. In order to express the treatment effects numerically, the areas under the curves of paw volume increase from 0 to 24 hours have been measured, thus giving the measurement of paw oedema in mlx24 hours.
# PGE2 [4] = test: Human blood: production of PGE2 stimulated by 100 µg/ml LPS, marker of monocyte COX-2 activity; assay type: cell-based
# Procedure: Human blood has been collected from health volunteers and made uncoagulable with 0.38% Na citrate. The test products have been added to 200 µl samples and then said samples stimulated with 100 µg/ml of LPS for 24 hours at 37°C. The PGE2 in the plasma, a marker of monocyte COX-2 activity [Panara et al. 1999], has been determined using a specific RIA method.
# PGE2 [5] = test: Rabbit chondrocytes: IL-1β-stimulated production of PGE2 (a COX-2 marker); assay type: cell-based, New Zealand white rabbits; details: for %Diff. vs control: PGE2, control = IL-1β
# Procedure: Joint cartilage chondrocytes, obtained from New Zealand white rabbits, have been cultured using the technique described by Berenbaum [1994]. […] The test products have been added 20 minutes prior to stimulation. On completion of stimulation, the supernatant liquid has been collected and stored at -80°C until analysis. PGE2 in the culture medium has been measured using a radio-immunological method. The production of PGE2 in this model is a marker of the activity of the cyclooxygenases induced (COX-2) in cartilage from the proinflammatory stimulus represented by IL-1β.
# [6] = 1 µM (Man, ASS as mangostin; ASS 1 = Man 1 + CGS 10)
# [7] = 10 µM (Man, ASS as mangostin; ASS 10 = Man 10 + CGS 100)
# [8] = oral doses of 40, 133 and 400 mg/kg
smiles,measurement,setting,value
"N[C@H]1C(O)O[C@H](CO)[C@@H](O)[C@@H]1O.N[C@H]1C(O)O[C@H](CO)[C@@H](O)[C@@H]1O.O=S(=O)(O)O.[Cl-].[Cl-].[Na+].[Na+] (some centres unmarked) [CGS, Crystalline Glucosamine Sulphate]",TNFα,"TNFα; 30 µM (Man, ASS as mangostin; ASS 30 = Man 30 + CGS 300)",14.70 ng/mL
same,TNFα,TNFα; 100 µM,13.80 ng/mL
same,TNFα,TNFα; 300 µM,12.70 ng/mL
same,%Diff. vs control,"TNFα; TNFα, 30 µM (Man, ASS as mangostin; ASS 30 = Man 30 + CGS 300)",-7.9%
same,%Diff. vs control,"TNFα; TNFα, 100 µM",-13.5%
same,%Diff. vs control,"TNFα; TNFα, 300 µM",-20.4%
same,IC50,"TNFα; TNFα, Man/Eman and ASS as mangostin concentration",> 300000 nM
same,inhibitory activity,"TNFα; TNFα, even at concentrations of 300 µM",weakly inhibitory
same,protection against IL-1β-induced cartilage degradation,[1]; 1 µM,41%
same,%GAG released,[1]; [6],41%
same,%GAG released,[1]; 3 µM,25%
same,%GAG released,[1]; 10 µM,16%
same,protection against IL-1β-induced cartilage degradation,[1]; 3 mM CGS,64%
same,protection against IL-1β-induced cartilage degradation,[1]; 10 mM CGS,77%
same,%Diff. vs baseline,[1]; [6],40.6%
same,%Diff. vs baseline,[1]; 3 µM,63.8%
same,%Diff. vs baseline,[1]; 10 µM,76.8%
same,EC50,"[1]; read-out: PC50, 50% protective concentration, ASS with reference to CGS",2300 nM
same,TXB2,TXB2; [7],124 ng/mL
same,TXB2,TXB2; 30 µM,118 ng/mL
same,TXB2,TXB2; 100 µM,125 ng/mL
same,effect on the release of TXB2,"TXB2; Man 1, 3, 10, CGS 10, 30, 100 µM, Ass 1, 3, 10",no significant stimulatory or inhibitory activity
same,%Diff. vs control,TXB2; [7],3.3%
same,%Diff. vs control,TXB2; 30 µM,-1.7%
same,%Diff. vs control,TXB2; 100 µM,4.2%
same,% Diff. vs. control,[2]; 40 mg/kg,1%
same,% Diff. vs. control,[2]; 133 mg/kg,-6%
same,% Diff. vs. control,[2]; 400 mg/kg,-4%
same,Diff. vs. control,[2]; 40 mg/kg,7
same,Diff. vs. control,[2]; 133 mg/kg,-59
same,Diff. vs. control,[2]; 400 mg/kg,-46
same,analgesic activity,[2]; [8],no significant analgesic activity
same,Analgesia,[2]; 40 mg/kg,1079 Δgx24h
same,Analgesia,[2]; 133 mg/kg,1012 Δgx24h
same,Analgesia,[2]; 400 mg/kg,1026 Δgx24h
same,% Diff. vs. control,[3]; 40 mg/kg,-1%
same,Diff. vs. control,[3]; 40 mg/kg,-0.1 mlx24 hours
same,% Diff. vs. control,[3]; 133 mg/kg,-2%
same,Diff. vs. control,[3]; 133 mg/kg,-0.3 mlx24 hours
same,% Diff. vs. control,[3]; 400 mg/kg,-4%
same,Diff. vs. control,[3]; 400 mg/kg,-0.6 mlx24 hours
same,anti-inflammatory activity,[3]; [8],no significant anti-inflammatory activity
same,Oedema,[3]; 40 mg/kg,15.6 Δmlx24h
same,Oedema,[3]; 133 mg/kg,15.4 Δmlx24h
same,Oedema,[3]; 400 mg/kg,15.2 Δmlx24h
same,PGE2,PGE2 [4]; [7],22.7 ng/mL
same,PGE2,PGE2 [4]; 30 µM (ASS as mangostin; ASS 30 = Man 30 + CGS 300),24.3 ng/mL
same,PGE2,PGE2 [4]; 100 µM,23.5 ng/mL
same,%Diff. vs control,"PGE2 [4]; PGE2, 10 µM (Man, ASS as mangostin; ASS 10 = Man 10 + CGS 100)",-7.3%
same,%Diff. vs control,"PGE2 [4]; PGE2, 30 µM (ASS as mangostin; ASS 30 = Man 30 + CGS 300)",-0.8%
same,%Diff. vs control,"PGE2 [4]; PGE2, 100 µM",-4.1%
same,stimulatory or inhibitory activity,"PGE2 [4]; PGE2, concentrations of 10, 30 or 100 µM",no significant stimulatory or inhibitory activity
same,PGE2,PGE2 [5]; [6],200 ng/mL
same,PGE2,PGE2 [5]; 3 µM (Man as mangostin),180 ng/mL
same,PGE2,PGE2 [5]; 10 µM,210 ng/mL
same,%Diff. vs control,PGE2 [5]; [6],6.4%
same,%Diff. vs control,PGE2 [5]; 3 µM (Man as mangostin),-4.3%
same,%Diff. vs control,PGE2 [5]; 10 µM,-11.7%
same,inhibitory or stimulatory activity,"PGE2 [5]; PGE2, concentrations of 1, 3 or 10 µM",no significant inhibitory or stimulatory activity
